Test results: ChEMBL document CHEMBL1143065, “Discovery and characterization of 4'-(2-furyl)-N-pyridin-3-yl-4,5'-bipyrimidin-2'-amine (LAS38096), a potent, selective, and efficacious A2B adenosine receptor antagonist” (J Med Chem, 2007)

Columns and labels:
[1] = target: T1, Adenosine receptor A2a (Homo sapiens, UniProt P29274); assay: Displacement of [3H]ZM-241385 from human A2A receptor expressed in HeLa cells at 2500 nM; format: cell-based
[2] = target: T2, Adenosine receptor A2b (Homo sapiens, UniProt P29275); assay: Displacement of [3H]DPCPX from human A2B receptor expressed in HEK293 cells; format: cell-based
T2 sequence (P29275 whole entry): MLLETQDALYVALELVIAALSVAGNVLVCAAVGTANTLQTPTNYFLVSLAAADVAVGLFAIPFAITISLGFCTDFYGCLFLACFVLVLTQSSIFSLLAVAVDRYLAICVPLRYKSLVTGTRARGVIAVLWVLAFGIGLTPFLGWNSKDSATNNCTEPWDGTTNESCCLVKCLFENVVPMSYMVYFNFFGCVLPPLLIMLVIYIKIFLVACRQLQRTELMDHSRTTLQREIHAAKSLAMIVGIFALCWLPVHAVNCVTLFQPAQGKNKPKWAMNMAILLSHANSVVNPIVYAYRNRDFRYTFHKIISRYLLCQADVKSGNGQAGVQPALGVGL

[3] = target: T3, Adenosine receptor A3 (Homo sapiens) (UniProt P0DMS8); assay: Displacement of […] from human A3 receptor expressed in HeLa cells at 1000 nM; format: cell-based
T3 sequence (whole entry): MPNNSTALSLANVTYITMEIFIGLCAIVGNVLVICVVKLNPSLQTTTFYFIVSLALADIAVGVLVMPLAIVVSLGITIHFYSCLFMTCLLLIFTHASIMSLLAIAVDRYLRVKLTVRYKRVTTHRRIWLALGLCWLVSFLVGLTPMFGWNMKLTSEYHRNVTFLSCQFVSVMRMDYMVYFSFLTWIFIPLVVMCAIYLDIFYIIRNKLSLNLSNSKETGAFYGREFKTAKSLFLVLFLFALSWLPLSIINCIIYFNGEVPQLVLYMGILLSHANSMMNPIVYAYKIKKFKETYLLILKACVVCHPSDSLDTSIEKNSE

[4] = target: T1, Adenosine receptor A2a; assay: Displacement of [3H]ZM-241385 from human A2A receptor expressed in HeLa cells; format: cell-based
[5] = target: T4, Adenosine receptor A1 (Homo sapiens, UniProt P30542); assay: Displacement of [3H]DPCPX from human A1 receptor expressed in CHO cells; format: cell-based
T4 sequence (P30542 whole entry): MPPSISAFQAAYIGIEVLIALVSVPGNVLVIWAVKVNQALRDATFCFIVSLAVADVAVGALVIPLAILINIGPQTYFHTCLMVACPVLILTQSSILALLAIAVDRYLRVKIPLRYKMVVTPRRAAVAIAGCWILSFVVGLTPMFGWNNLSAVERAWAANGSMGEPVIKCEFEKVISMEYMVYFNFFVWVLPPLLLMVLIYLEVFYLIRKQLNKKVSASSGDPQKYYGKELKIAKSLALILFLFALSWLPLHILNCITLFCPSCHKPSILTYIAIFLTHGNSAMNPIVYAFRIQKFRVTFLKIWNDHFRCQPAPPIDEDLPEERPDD

[6] = target: T5, Adenosine receptor A3 (Homo sapiens, UniProt P0DMS8); assay: Displacement of […] from human A3 receptor expressed in HeLa cells; format: cell-based
T5 sequence (P0DMS8 whole entry): T3 sequence (whole entry)

[7] = target: T6, Adenosine receptor A1 (Homo sapiens) (UniProt P30542); assay: Displacement of [3H]DPCPX from human A1 receptor expressed in CHO cells at 10000 nM; format: cell-based
T6 sequence (whole entry): T4 sequence (P30542 whole entry)

[8] = Tmax in Wistar rat at 10 mg/kg, po; format: ADME, organism-based; parameters: dose 10 mg/kg, route oral; conditions: in vivo
[9] = target: T6, Adenosine receptor A1 (Homo sapiens); assay: Displacement of [3H]DPCPX from human A1 receptor expressed in CHO cells at 1000 nM; format: cell-based
[10] = Half life in Wistar rat at 1 mg/kg, iv; format: ADME, organism-based; parameters: dose 1 mg/kg, route intravenous; conditions: in vivo
[11] = Volume of distribution at steady state in Wistar rat at 1 mg/kg, iv; format: ADME, organism-based; parameters: dose 1 mg/kg, route intravenous; conditions: in vivo, read-out: Vdss
[12] = Cmax in Swiss mouse at 10 mg/kg, po; format: ADME, organism-based; parameters: dose 10 mg/kg, route oral; conditions: in vivo
[13] = Tmax in Beagle dog at 10 mg/kg, po; format: ADME, organism-based, Canis lupus familiaris; parameters: dose 10 mg/kg, route oral; conditions: in vivo
[14] = target: Adenosine receptor A3 (Mus musculus) (UniProt Q61618); conditions: CHO, 10 uM
Description: Activity at mouse A3 receptor expressed in CHO cells assessed as inhibition of NECA-induced intracellular cAMP levels at 10 uM by ELISA

[15] = Bioavailability in Beagle dog at 10 mg/kg, po; format: ADME, organism-based, Canis lupus familiaris; conditions: in vivo
[16] = Half life in Beagle dog at 1 mg/kg, iv; format: ADME, organism-based, Canis lupus familiaris; parameters: dose 1 mg/kg, route intravenous; conditions: in vivo
[17] = AUC in Wistar rat at 10 mg/kg, po; format: ADME, organism-based; parameters: dose 10 mg/kg, route oral; conditions: plasma
[18] = Tmax in Swiss mouse at 10 mg/kg, po; format: ADME, organism-based; parameters: dose 10 mg/kg, route oral; conditions: in vivo
[19] = Mean residence time in Beagle dog at 10 mg/kg, po; format: ADME, organism-based, Canis lupus familiaris; parameters: dose 10 mg/kg, route oral; conditions: in vivo
[20] = AUC in Swiss mouse at 10 mg/kg, po; format: ADME, organism-based; parameters: dose 10 mg/kg, route oral; conditions: plasma
[21] = Mean residence time in Beagle dog at 1 mg/kg, iv; format: ADME, organism-based, Canis lupus familiaris; parameters: dose 1 mg/kg, route intravenous; conditions: in vivo
[22] = Cmax in Wistar rat at 10 mg/kg, po; format: ADME, organism-based; parameters: dose 10 mg/kg, route oral; conditions: in vivo
[23] = target: T7, Adenosine receptor A2b (Mus musculus, UniProt Q60614); assay: Inhibition of NECA-induced IL6 production in Swiss mouse fibroblasts after 24 hrs by ELISA; format: functional
T7 sequence (Q60614 whole entry): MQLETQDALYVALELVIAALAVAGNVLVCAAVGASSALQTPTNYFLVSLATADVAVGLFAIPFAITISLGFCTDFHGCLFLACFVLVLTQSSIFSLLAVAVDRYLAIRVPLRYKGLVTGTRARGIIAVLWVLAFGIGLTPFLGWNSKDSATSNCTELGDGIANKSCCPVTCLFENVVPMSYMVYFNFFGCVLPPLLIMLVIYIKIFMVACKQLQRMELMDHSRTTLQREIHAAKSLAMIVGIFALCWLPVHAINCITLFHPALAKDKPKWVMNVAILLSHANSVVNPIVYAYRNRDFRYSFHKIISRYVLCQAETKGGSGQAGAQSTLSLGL

[24] = Bioavailability in Wistar rat at 10 mg/kg, po; format: ADME, organism-based; conditions: in vivo
[25] = AUC in Beagle dog at 10 mg/kg, po; format: ADME, organism-based, Canis lupus familiaris; parameters: dose 10 mg/kg, route oral; conditions: plasma
[26] = Cmax in Beagle dog at 10 mg/kg, po; format: ADME, organism-based, Canis lupus familiaris; parameters: dose 10 mg/kg, route oral; conditions: in vivo
[27] = target: T8, Adenosine receptors; A2b & A3 (Homo sapiens, UniProt P29275+P0DMS8); assay: Inhibition of NECA-induced IL6 production in human fibroblast after 24 hrs by ELISA; format: functional
T8 sequence (P29275 whole entry): T2 sequence (P29275 whole entry)
T8 sequence (P0DMS8 whole entry): T3 sequence (whole entry)

[28] = target: T7, Adenosine receptor A2b; assay: Activity at mouse A2B receptor expressed in CHO cells assessed as inhibition of NECA-induced intracellular cAMP levels by ELISA; format: functional, cell-based
[29] = Clearance in Beagle dog at 1 mg/kg, iv; format: ADME, organism-based, Canis lupus familiaris; parameters: dose 1 mg/kg, route intravenous; conditions: in vivo
[30] = Mean residence time in Wistar rat at 10 mg/kg, po; format: ADME, organism-based; parameters: dose 10 mg/kg, route oral; conditions: in vivo
[31] = Volume of distribution at steady state in Beagle dog at 1 mg/kg, iv; format: ADME, organism-based, Canis lupus familiaris; parameters: dose 1 mg/kg, route intravenous; conditions: in vivo, read-out: Vdss
[32] = system: Rattus norvegicus; assay: Clearance in Wistar rat at 1 mg/kg, iv; format: ADME, organism-based; parameters: dose 1 mg/kg, route intravenous; conditions: in vivo
[33] = Mean residence time in Wistar rat at 1 mg/kg, iv; format: ADME, organism-based; parameters: dose 1 mg/kg, route intravenous; conditions: in vivo
[34] = target: T2, Adenosine receptor A2b; assay: Activity at human A2B receptor expressed in HEK293 cells assessed as inhibition of NECA-induced intracellular cAMP levels by ELISA; format: functional, cell-based

T1 sequence (P29274 whole entry): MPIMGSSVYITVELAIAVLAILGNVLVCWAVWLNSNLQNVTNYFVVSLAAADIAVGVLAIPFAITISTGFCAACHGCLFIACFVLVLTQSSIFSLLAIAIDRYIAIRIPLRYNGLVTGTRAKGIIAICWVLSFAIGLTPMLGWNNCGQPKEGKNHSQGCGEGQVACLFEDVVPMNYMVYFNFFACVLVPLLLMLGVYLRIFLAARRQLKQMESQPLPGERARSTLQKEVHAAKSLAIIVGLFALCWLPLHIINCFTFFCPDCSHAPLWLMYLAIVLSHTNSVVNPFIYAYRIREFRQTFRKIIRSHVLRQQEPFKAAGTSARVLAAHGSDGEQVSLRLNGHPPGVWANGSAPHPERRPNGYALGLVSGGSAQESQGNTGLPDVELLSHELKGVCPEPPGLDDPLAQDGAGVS
Chain of Adenosine receptor A3 (Mus musculus) (Q61618 whole entry, looked up): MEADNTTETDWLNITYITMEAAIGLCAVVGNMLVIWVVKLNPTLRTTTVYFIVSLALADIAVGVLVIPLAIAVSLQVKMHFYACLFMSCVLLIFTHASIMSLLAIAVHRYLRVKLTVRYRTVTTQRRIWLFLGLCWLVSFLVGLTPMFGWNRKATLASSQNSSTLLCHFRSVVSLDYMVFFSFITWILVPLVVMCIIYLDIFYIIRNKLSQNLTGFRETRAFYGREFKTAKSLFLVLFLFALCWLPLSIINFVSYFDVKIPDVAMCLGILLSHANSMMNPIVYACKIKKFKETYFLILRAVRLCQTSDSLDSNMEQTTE

Structure (SMILES): c1coc(-c2nc(Nc3cncnc3)ncc2-c2ccncn2)c1
- inhibition [1]: 29%
- Ki [2]: 0.024 µM
- inhibition [3]: 42%
- Ki [4]: > 2.5 µM
- IC50 [5]: 0.045 µM
- Ki [5]: > 10 µM
- Ki [6]: > 1 µM

Structure (SMILES): O=c1ccc(Nc2ncc(-c3ccncn3)c(-c3ccco3)n2)cn1CC1CC1
- inhibition [1]: 38.5%
- inhibition [7]: 28%
- Ki [2]: 0.119 µM
- inhibition [3]: 29%
- Ki [4]: > 2.5 µM
- Ki [5]: > 10 µM
- Ki [6]: > 1 µM

Structure (SMILES): N#Cc1cncc(Nc2ncc(-c3ccncn3)c(-c3ccco3)n2)c1
- inhibition [1]: 37%
- inhibition [7]: 22%
- Ki [2]: 0.069 µM
- inhibition [3]: 24%
- Ki [4]: > 2.5 µM
- Ki [5]: > 10 µM
- Ki [6]: > 1 µM

Structure (SMILES): COc1ccc(Nc2ncc(-c3ccncn3)c(-c3ccco3)n2)cn1
- inhibition [1]: 21%
- inhibition [7]: 25%
- Ki [2]: 0.115 µM
- inhibition [3]: 29%
- Ki [4]: > 2.5 µM
- Ki [5]: > 10 µM
- Ki [6]: > 1 µM

Structure (SMILES): Cn1cc(Nc2ncc(-c3ccncn3)c(-c3ccco3)n2)ccc1=O
- inhibition [1]: 20%
- inhibition [7]: 17%
- Ki [2]: 0.028 µM
- inhibition [3]: 28%
- Ki [4]: > 2.5 µM
- Ki [5]: > 10 µM
- Ki [6]: > 1 µM

Structure (SMILES): c1cncc(Nc2ncc(-c3ccncn3)c(-c3ccco3)n2)c1
- Tmax [8]: 18 min
- inhibition [9]: 14%
- half-life [10]: 12 min
- Vd [11]: 0.5 L/kg
- Cmax [12]: 13 µM
- inhibition [1]: 40%
- Tmax [13]: 78 min
- inhibition [14]: 5%
- bioavailability [15]: 81%
- half-life [16]: 48 min
- AUC [17]: 16 µM·h
- Tmax [18]: 18 min
- MRT [19]: 108 min
- AUC [20]: 4 µM·h
- MRT [21]: 42 min
- Ki [2]: 0.017 µM
- inhibition [3]: 36%
- Ki [4]: > 2.5 µM
- Cmax [22]: 11 µM
- IC50 [23]: 0.64 µM
- bioavailability [24]: 75%
- AUC [25]: 15 µM·h
- Cmax [26]: 6 µM
- IC50 [27]: 0.34 µM
- Ki [5]: > 1 µM
- IC50 [28]: 0.349 µM
- clearance [29]: 1.68 L/h/kg
- MRT [30]: 84 min
- Vd [31]: 1.1 L/kg
- clearance [32]: 1.5 L/h/kg
- MRT [33]: 18 min
- Ki [6]: > 1 µM
- IC50 [34]: 0.321 µM

Structure (SMILES): c1coc(-c2nc(Nc3cnccn3)ncc2-c2ccncn2)c1
- inhibition [1]: 21%
- inhibition [7]: 30%
- Ki [2]: 0.116 µM
- inhibition [3]: 18%
- Ki [4]: > 2.5 µM
- Ki [5]: > 10 µM
- Ki [6]: > 1 µM

Structure (SMILES): COc1ncc(Nc2ncc(-c3ccncn3)c(-c3ccco3)n2)cn1
- inhibition [1]: 25%
- inhibition [7]: 45%
- Ki [2]: 0.039 µM
- inhibition [3]: 32%
- Ki [4]: > 2.5 µM
- Ki [5]: > 10 µM
- Ki [6]: > 1 µM

Structure (SMILES): O=c1ccc(Nc2ncc(-c3ccncn3)c(-c3ccco3)n2)c[nH]1
- inhibition [1]: 25%
- inhibition [7]: 31%
- Ki [2]: 0.016 µM
- inhibition [3]: 15%
- Ki [4]: > 2.5 µM
- Ki [5]: > 10 µM
- Ki [6]: > 1 µM

Structure (SMILES): [O-][n+]1cccc(Nc2ncc(-c3ccncn3)c(-c3ccco3)n2)c1
- inhibition [1]: 24%
- inhibition [7]: 38%
- Ki [2]: 0.034 µM
- inhibition [3]: 35%
- Ki [4]: > 2.5 µM
- Ki [5]: > 10 µM
- Ki [6]: > 1 µM
